# Reference: patent US8436004B2, “Bicycloaniline derivative” (MSD K.K., priority 2007, dated 2013)
# System: Human colon cancer cells WiDr
# Test: Tumor growth inhibitory effect, WiDr subcutaneous xenograft in nude rats
# Assay type: in vivo, F344/N Jcl-rnu nude rats
# Procedure: Pharmacological Test 4 (Tumor Growth Inhibitory Effect)
# Human colon cancer cells WiDr (obtained from ATCC) were implanted into the subcutaneous area of the back of F344/N Jcl-rnu nude rats. 12 days after the implantation, 5 mg/kg of gemcitabine (Gemzar, from Eli Lily) was intravenously administered to them; and after 24 hours, a test compound suspended in a solvent (0.5% methyl cellulose) was orally administered thereto. This was repeated once a week for 3 weeks. The tumor volume (0.5×major diameter×(minor diameter)^2) was measured on days 0, 3, 6, 10, 13, 17, 20, 24 and 27 (the first gemcitabine administration is on day 0). The relative tumor volume was calculated, based on the tumor volume on day 0, as 1. The tumor growth rate (% T/C) was obtained according to the formulae mentioned below.
# In case where the tumor volume change from day 0 in the test compound administration group is more than 0 (>0): % T/C=(tumor volume change in the test compound group on days 3, 6, 10, 13, 17, 20, 24 and 27/tumor volume change in the control group on days 3, 6, 10, 13, 17, 20, 24 and 27)×100. In case where the tumor volume change from day 0 in the test compound administration group is less than 0 (<0): % T/C=(tumor volume change in the test compound group on days 3, 6, 10, 13, 17, 20, 24 and 27/tumor volume […] in the test compound group on day 0)×100.
# Gemcitabine was administered on days 0, 7 and 14. The compound of Example 1 was administered on days 1, 8 and 15.
smiles,measurement,setting,value
"Nc1ccn([C@@H]2O[C@H](CO)[C@@H](O)C2(F)F)c(=O)n1 [Gemcitabine, gemcitabine]",% T/C day 3,"day 3, gemcitabine 5 mg/kg i.v. days 0, 7, 14, Example 1 15 mg/kg oral days 1, 8, 15, n=5",62%
same,% T/C day 6,"day 6, gemcitabine 5 mg/kg i.v. days 0, 7, 14, Example 1 15 mg/kg oral days 1, 8, 15, n=5",67%
same,% T/C day 10,"day 10, gemcitabine 5 mg/kg i.v. days 0, 7, 14, Example 1 15 mg/kg oral days 1, 8, 15, n=5",66%
same,% T/C day 13,"day 13, gemcitabine 5 mg/kg i.v. days 0, 7, 14, Example 1 15 mg/kg oral days 1, 8, 15, n=5",64%
same,% T/C day 17,"day 17, gemcitabine 5 mg/kg i.v. days 0, 7, 14, Example 1 15 mg/kg oral days 1, 8, 15, n=5",57%
same,% T/C day 20,"day 20, gemcitabine 5 mg/kg i.v. days 0, 7, 14, Example 1 15 mg/kg oral days 1, 8, 15, n=5",49%
same,% T/C day 24,"day 24, gemcitabine 5 mg/kg i.v. days 0, 7, 14, Example 1 15 mg/kg oral days 1, 8, 15, n=5",52%
same,% T/C day 27,"day 27, gemcitabine 5 mg/kg i.v. days 0, 7, 14, Example 1 15 mg/kg oral days 1, 8, 15, n=5",54%
same,"tumor growth rate, result in words",summary of Table 5,reduced the tumor growth rate
